Laboratory results: patent US10000501B2, “Inhibitors of HIF prolyl hydroxylase” (MERCK SHARP & DOHME CORP., priority 2014, dated 2018)

Molecular target: T1, human HIF-PHD2 (Homo sapiens, UniProt Q9GZT9)
T1 construct: FLAG-tagged full length PHD2 expressed in and purified from baculovirus-infected Sf9 cells; FLAG; made in house; host or cells: baculovirus-infected Sf9 cells
Assay: HIF-PHD2 inhibition assay (hydroxylation of HIF-1α peptide, time resolved fluorescence)
Type: biochemical
Settings: FLAG-tagged full length PHD2; 0.2 μM 2-oxoglutarate, 0.5 μM HIF-1α peptide
Description: To each well of a 384-well plate, 1 μL of test compounds in DMSO (final concentration ranging from 0.3 nM to 10 uM) were added into 20 μl of assay buffer (50 mM Tris pH 7.4/0.01% Tween-20/0.1 mg/ml bovine serum albumin/10 μM ferrous sulfate/1 mM sodium ascorbate/20 μg/ml catalase) containing 0.15 μg/ml FLAG-tagged full length PHD2 expressed in and purified from baculovirus-infected Sf9 cells. […] Purif.

T1 sequence (Q9GZT9 whole entry): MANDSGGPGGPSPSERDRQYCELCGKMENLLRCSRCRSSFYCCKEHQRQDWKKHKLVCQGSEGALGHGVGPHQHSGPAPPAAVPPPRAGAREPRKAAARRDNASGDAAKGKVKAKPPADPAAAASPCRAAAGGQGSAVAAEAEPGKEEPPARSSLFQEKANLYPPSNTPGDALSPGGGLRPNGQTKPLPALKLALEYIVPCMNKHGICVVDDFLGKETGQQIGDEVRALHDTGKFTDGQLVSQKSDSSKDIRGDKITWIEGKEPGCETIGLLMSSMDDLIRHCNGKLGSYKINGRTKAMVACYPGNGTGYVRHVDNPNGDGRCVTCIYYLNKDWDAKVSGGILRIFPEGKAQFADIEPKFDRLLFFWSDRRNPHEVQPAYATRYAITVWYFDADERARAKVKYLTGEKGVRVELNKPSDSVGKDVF

Row | IC50 | SMILES
1 | 42.2 nM | CC(C)c1ccc(Cn2c3c(c(O)c(C(=O)NCC(=O)O)c2=O)CCOC3)cc1 [Example 39, 2-(4-hydroxy-1-(4-isopropylbenzyl)-2-oxo-2,5,6,8-tetrahydro-1H-pyrano[3,4-b]pyridine-3-carboxamido)acetic acid]
2 | 21.8 nM | N#Cc1ccc(Cn2c3c(c(O)c(C(=O)NCC(=O)O)c2=O)CCOC3)cc1 [Example 40, 2-(1-(4-cyanobenzyl)-4-hydroxy-2-oxo-2,5,6,8-tetrahydro-1H-pyrano[3,4-b]pyridine-3-carboxamido)acetic acid]
3 | 28.7 nM | CS(=O)(=O)c1ccc(Cn2c3c(c(O)c(C(=O)NCC(=O)O)c2=O)CCOC3)cc1 [Example 41, 2-(4-hydroxy-1-(4-(methylsulfonyl)benzyl)-2-oxo-2,5,6,8-tetrahydro-1H-pyrano[3,4-b]pyridine-3-carboxamido)acetic acid]
4 | 19.9 nM | O=C(O)CNC(=O)c1c(O)c2c(n(Cc3ccc(C(F)(F)F)nc3)c1=O)COCC2 [Example 42, 2-(4-hydroxy-2-oxo-1-((6-(trifluoromethyl)pyridin-3-yl)methyl)-2,5,6,8-tetrahydro-1H-pyrano[3,4-b]pyridine-3-carboxamido)acetic acid]
5 | 26.5 nM | O=C(O)CNC(=O)c1c(O)c2c(n(Cc3cc(F)c(F)cc3F)c1=O)COCC2 [Example 43, 2-(4-hydroxy-2-oxo-1-(2,4,5-trifluorobenzyl)-2,5,6,8-tetrahydro-1H-pyrano[3,4-b]pyridine-3-carboxamido)acetic acid]
6 | 14.4 nM | N#Cc1ccc(Cn2c3c(c(O)c(C(=O)NCC(=O)O)c2=O)CCOC3)c(F)c1 [Example 44, 2-(1-(4-cyano-2-fluorobenzyl)-4-hydroxy-2-oxo-2,5,6,8-tetrahydro-1H-pyrano[3,4-b]pyridine-3-carboxamido)acetic acid]
7 | 90.1 nM | Cc1cc(Cn2c3c(c(O)c(C(=O)NCC(=O)O)c2=O)CCOC3)ccc1C#N [Example 45, 2-(1-(4-cyano-3-methylbenzyl)-4-hydroxy-2-oxo-2,5,6,8-tetrahydro-1H-pyrano[3,4-b]pyridine-3-carboxamido)acetic acid]
8 | 90.1 nM | O=C(O)CNC(=O)c1c(O)c2c(n(Cc3ncc(C(F)(F)F)cn3)c1=O)COCC2 [Example 46, 2-(4-hydroxy-2-oxo-1-((5-(trifluoromethyl)pyrimidin-2-yl)methyl)-2,5,6,8-tetrahydro-1H-pyrano[3,4-b]pyridine-3-carboxamido)acetic acid]
9 | 19.3 nM | O=C(O)CNC(=O)c1c(O)c2c(n(Cc3ccc(Cl)cc3F)c1=O)COCC2 [Example 47, 2-(1-(4-chloro-2-fluorobenzyl)-4-hydroxy-2-oxo-2,5,6,8-tetrahydro-1H-pyrano[3,4-b]pyridine-3-carboxamido)acetic acid]
10 | 8.9 nM | O=C(O)CNC(=O)c1c(O)c2c(n(Cc3nc4ccccc4s3)c1=O)COCC2 [Example 48, 2-(1-(benzo[d]thiazol-2-ylmethyl)-4-hydroxy-2-oxo-2,5,6,8-tetrahydro-1H-pyrano[3,4-b]pyridine-3-carboxamido)acetic acid]
11 | 28.6 nM | O=C(O)CNC(=O)c1c(O)c2c(n(Cc3ccc(OC(F)F)cc3)c1=O)COCC2 [Example 49, 2-(1-(4-(difluoromethoxy)benzyl)-4-hydroxy-2-oxo-2,5,6,8-tetrahydro-1H-pyrano[3,4-b]pyridine-3-carboxamido)acetic acid]
12 | 55.1 nM | Cn1ccc(Cn2c3c(c(O)c(C(=O)NCC(=O)O)c2=O)CCOC3)n1 [Example 50, 2-(4-hydroxy-1-((1-methyl-1H-pyrazol-3-yl)methyl)-2-oxo-2,5,6,8-tetrahydro-1H-pyrano[3,4-b]pyridine-3-carboxamido)acetic acid]
13 | 30.2 nM | COc1ccc(Cn2c3c(c(O)c(C(=O)NCC(=O)O)c2=O)CCOC3)cc1 [Example 51, 2-(4-hydroxy-1-(4-methoxybenzyl)-2-oxo-2,5,6,8-tetrahydro-1H-pyrano[3,4-b]pyridine-3-carboxamido)acetic acid]
14 | 24.1 nM | O=C(O)CNC(=O)c1c(O)c2c(n(Cc3ccc(OC(F)(F)F)cc3)c1=O)COCC2 [Example 52, 2-(4-hydroxy-2-oxo-1-(4-(trifluoromethoxy)benzyl)-2,5,6,8-tetrahydro-1H-pyrano[3,4-b]pyridine-3-carboxamido)acetic acid]
15 | 29.3 nM | O=C(O)CNC(=O)c1c(O)c2c(n(Cc3ccc(F)cc3)c1=O)COCC2 [Example 53, 2-(1-(4-fluorobenzyl)-4-hydroxy-2-oxo-2,5,6,8-tetrahydro-1H-pyrano[3,4-b]pyridine-3-carboxamido)acetic acid]
16 | 30.8 nM | O=C(O)CNC(=O)c1c(O)c2c(n(Cc3ccc(F)c(F)c3)c1=O)COCC2 [Example 54, 2-(1-(3,4-difluorobenzyl)-4-hydroxy-2-oxo-2,5,6,8-tetrahydro-1H-pyrano[3,4-b]pyridine-3-carboxamido)acetic acid]

Row | IC50 | SMILES
17 | 21.3 nM | CNC(=O)c1ccc(Cn2c3c(c(O)c(C(=O)NCC(=O)O)c2=O)CCOC3)cc1 [Example 55, 2-(4-hydroxy-1-(4-(methylcarbamoyl)benzyl)-2-oxo-2,5,6,8-tetrahydro-1H-pyrano[3,4-b]pyridine-3-carboxamido)acetic acid]
18 | 29.1 nM | CC(C)Oc1ccc(Cn2c3c(c(O)c(C(=O)NCC(=O)O)c2=O)CCOC3)cc1 [Example 56, 2-(4-hydroxy-1-(4-isopropoxybenzyl)-2-oxo-2,5,6,8-tetrahydro-1H-pyrano[3,4-b]pyridine-3-carboxamido)acetic acid]
19 | 35.2 nM | N#Cc1cccc(Cn2c3c(c(O)c(C(=O)NCC(=O)O)c2=O)CCOC3)c1 [Example 57, 2-(1-(3-cyanobenzyl)-4-hydroxy-2-oxo-2,5,6,8-tetrahydro-1H-pyrano[3,4-b]pyridine-3-carboxamido)acetic acid]
20 | 25.5 nM | O=C(O)CNC(=O)c1c(O)c2c(n(Cc3ccccc3Cl)c1=O)COCC2 [Example 58, 2-(1-(2-chlorobenzyl)-4-hydroxy-2-oxo-2,5,6,8-tetrahydro-1H-pyrano[3,4-b]pyridine-3-carboxamido)acetic acid]
21 | 44.2 nM | O=C(O)CNC(=O)c1c(O)c2c(n(Cc3ccccn3)c1=O)COCC2 [Example 59, 2-(4-hydroxy-2-oxo-1-(pyridin-2-ylmethyl)-2,5,6,8-tetrahydro-1H-pyrano[3,4-b]pyridine-3-carboxamido)acetic acid]
22 | 30.4 nM | O=C(O)CNC(=O)c1c(O)c2c(n(Cc3ccncc3)c1=O)COCC2 [Example 60, 2-(4-hydroxy-2-oxo-1-(pyridin-4-ylmethyl)-2,5,6,8-tetrahydro-1H-pyrano[3,4-b]pyridine-3-carboxamido)acetic acid]
23 | 22.6 nM | N#Cc1ccc(Cn2c3c(c(O)c(C(=O)NCC(=O)O)c2=O)CCOC3)cc1F [Example 61, 2-(1-(4-cyano-3-fluorobenzyl)-4-hydroxy-2-oxo-2,5,6,8-tetrahydro-1H-pyrano[3,4-b]pyridine-3-carboxamido)acetic acid]
24 | 44.1 nM | O=C(O)CNC(=O)c1c(O)c2c(n(Cc3cncs3)c1=O)COCC2 [Example 62, 2-(4-hydroxy-2-oxo-1-(thiazol-5-ylmethyl)-2,5,6,8-tetrahydro-1H-pyrano[3,4-b]pyridine-3-carboxamido)acetic acid]
25 | 67.4 nM | CC(C)(O)c1ccc(Cn2c3c(c(O)c(C(=O)NCC(=O)O)c2=O)CCOC3)cc1 [Example 63, 2-(4-Hydroxy-1-(4-(2-hydroxypropan-2-yl)benzyl)-2-oxo-2,5,6,8-tetrahydro-1H-pyrano[3,4-b]pyridine-3-carboxamido)acetic acid]
26 | 30.6 nM | NC(=O)c1ccc(Cn2c3c(c(O)c(C(=O)NCC(=O)O)c2=O)CCOC3)cc1 [Example 64, 2-(1-(4-Carbamoylbenzyl)-4-hydroxy-2-oxo-2,5,6,8-tetrahydro-1H-pyrano[3,4-b]pyridine-3-carboxamido)acetic acid]
27 | 23.6 nM | O=C(O)CNC(=O)c1c(O)c2c(n(Cc3ccc(-c4ccc(C(F)(F)F)cc4)cc3)c1=O)COCC2 [Example 65, 2-(4-Hydroxy-2-oxo-1-((4′-(trifluoromethyl)-[1,1′-biphenyl]-4-yl)methyl)-2,5,6,8-tetrahydro-1H-pyrano[3,4-b]pyridine-3-carboxamido)acetic acid]
28 | 28.8 nM | O=C(O)CNC(=O)c1c(O)c2c(n(Cc3ccc(-c4ccc(OC(F)(F)F)cc4)cc3)c1=O)COCC2 [Example 66, 2-(4-hydroxy-2-oxo-1-((4′-(trifluoromethoxy)-[1,1′-biphenyl]-4-yl)methyl)-2,5,6,8-tetrahydro-1H-pyrano[3,4-b]pyridine-3-carboxamido)acetic acid]
29 | 13.5 nM | O=C(O)CNC(=O)c1c(O)c2c(n(Cc3ccc(-c4ccc(Cl)cc4)cc3)c1=O)COCC2 [Example 67, 2-(1-((4′-chloro-[1,1′-biphenyl]-4-yl)methyl)-4-hydroxy-2-oxo-2,5,6,8-tetrahydro-1H-pyrano[3,4-b]pyridine-3-carboxamido)acetic acid]
30 | 7.8 nM | NC(=O)c1ccc(-c2ccc(Cn3c4c(c(O)c(C(=O)NCC(=O)O)c3=O)CCOC4)cc2)cc1 [Example 68, 2-(1-((4′-carbamoyl-[1,1′-biphenyl]-4-yl)methyl)-4-hydroxy-2-oxo-2,5,6,8-tetrahydro-1H-pyrano[3,4-b]pyridine-3-carboxamido)acetic acid]
31 | 16.3 nM | N#Cc1ccc(-c2ccc(Cn3c4c(c(O)c(C(=O)NCC(=O)O)c3=O)CCOC4)cc2)cc1 [Example 69, 2-(1-((4′-cyano-[1,1′-biphenyl]-4-yl)methyl)-4-hydroxy-2-oxo-2,5,6,8-tetrahydro-1H-pyrano[3,4-b]pyridine-3-carboxamido)acetic acid]
32 | 10.4 nM | CN1Cc2c(c(O)c(C(=O)NCC(=O)O)c(=O)n2Cc2ccc(C#N)cc2F)CC1=O [Example 70, 2-(1-(4-Cyano-2-fluorobenzyl)-4-hydroxy-7-methyl-2,6-dioxo-1,2,5,6,7,8-hexahydro-1,7-naphthyridine-3-carboxamido)acetic acid]
